Results published in publication PMC7447754 (Nature Communications, 2020).
Converted amounts (≈) assume the structure as drawn. Where a SMILES comes first, the peptide text is derived from it.

How the values were obtained:
[1] = system: SARS-CoV-2; settings: 24 h, pH 7.4
[2] = system: parainfluenza virus 3; settings: 24 h, pH 7.4
[3] = system: endosomal acidification in MDCK cells; format: cell-based, canine
[4] = system: SARS-CoV-2; format: binding
[5] = system: rhinovirus; format: binding
[6] = system: virus–host endosomal acidification in H1N1-infected MDCK cells; format: cell-based, canine
[7] = system: SARS-CoV-2
[8] = system: MERS-CoV
[9] = system: SARS-CoV
[10] = system: A(H7N9) virus
[11] = system: rhinovirus
[12] = molecular target: H1N1 HA1 protein (Influenza A virus, UniProt C3W5S1)
[13] = molecular target: MERS-CoV S protein (Middle East respiratory syndrome-related coronavirus, UniProt K9N5Q8)
[14] = system: H1N1 virus
[15] = system: H1N1 virus; remark: listed apart in the source
[16] = system: H1N1 virus; remark: listed apart in the source
[17] = system: SARS-CoV-2; remark: listed apart in the source
[18] = physchem; settings: water

MERS-CoV S protein, sequence (K9N5Q8 18-1353 limits assumed): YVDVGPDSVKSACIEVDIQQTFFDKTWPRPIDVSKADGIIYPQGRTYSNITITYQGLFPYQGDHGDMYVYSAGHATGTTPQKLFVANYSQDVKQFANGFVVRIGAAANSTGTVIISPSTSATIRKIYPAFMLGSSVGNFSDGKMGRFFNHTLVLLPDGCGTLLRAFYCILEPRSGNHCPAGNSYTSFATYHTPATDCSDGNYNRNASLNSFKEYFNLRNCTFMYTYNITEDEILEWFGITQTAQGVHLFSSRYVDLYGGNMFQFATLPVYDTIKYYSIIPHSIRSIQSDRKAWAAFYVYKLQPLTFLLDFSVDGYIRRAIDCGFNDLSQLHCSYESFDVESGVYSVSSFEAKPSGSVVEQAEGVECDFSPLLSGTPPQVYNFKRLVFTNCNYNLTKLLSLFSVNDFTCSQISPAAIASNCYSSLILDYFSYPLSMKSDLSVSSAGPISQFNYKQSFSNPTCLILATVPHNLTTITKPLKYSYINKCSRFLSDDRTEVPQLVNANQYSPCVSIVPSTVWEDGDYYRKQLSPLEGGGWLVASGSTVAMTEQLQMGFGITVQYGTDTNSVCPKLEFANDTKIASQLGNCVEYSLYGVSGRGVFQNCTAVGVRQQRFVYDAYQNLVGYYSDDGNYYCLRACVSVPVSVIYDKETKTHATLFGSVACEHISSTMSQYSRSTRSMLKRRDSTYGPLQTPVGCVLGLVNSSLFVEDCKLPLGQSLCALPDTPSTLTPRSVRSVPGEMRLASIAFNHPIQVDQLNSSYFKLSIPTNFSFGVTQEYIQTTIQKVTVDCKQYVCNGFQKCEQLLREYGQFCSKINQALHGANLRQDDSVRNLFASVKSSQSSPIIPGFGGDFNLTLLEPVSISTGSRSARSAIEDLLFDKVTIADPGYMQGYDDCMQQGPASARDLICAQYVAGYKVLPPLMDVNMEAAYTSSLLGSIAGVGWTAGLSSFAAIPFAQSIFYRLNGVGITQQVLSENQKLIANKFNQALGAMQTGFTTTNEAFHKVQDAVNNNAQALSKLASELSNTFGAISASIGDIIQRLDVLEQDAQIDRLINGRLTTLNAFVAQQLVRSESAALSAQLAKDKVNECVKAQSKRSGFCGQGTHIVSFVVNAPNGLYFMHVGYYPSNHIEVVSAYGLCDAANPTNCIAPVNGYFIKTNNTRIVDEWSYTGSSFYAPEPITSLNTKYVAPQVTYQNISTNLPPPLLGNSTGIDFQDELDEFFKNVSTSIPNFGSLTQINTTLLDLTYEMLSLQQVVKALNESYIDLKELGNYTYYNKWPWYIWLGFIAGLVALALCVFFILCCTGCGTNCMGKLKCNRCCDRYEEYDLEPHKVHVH
H1N1 HA1 protein, sequence (C3W5S1 18-344 limits assumed): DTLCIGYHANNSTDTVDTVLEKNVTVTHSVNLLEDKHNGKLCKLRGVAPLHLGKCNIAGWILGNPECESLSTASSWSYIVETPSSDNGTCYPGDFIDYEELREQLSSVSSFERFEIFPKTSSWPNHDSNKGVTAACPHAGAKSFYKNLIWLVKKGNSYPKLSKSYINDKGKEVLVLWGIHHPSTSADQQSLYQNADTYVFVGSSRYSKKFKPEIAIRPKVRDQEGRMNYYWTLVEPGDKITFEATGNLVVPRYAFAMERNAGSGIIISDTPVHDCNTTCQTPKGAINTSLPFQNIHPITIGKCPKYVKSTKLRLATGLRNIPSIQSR

| Compound | IC50 against SARS-CoV-2 [1] [µg/mL] | IC50 against parainfluenza virus 3 [2] [µg/mL] | inhibition of endosomal acidification in live cells [3] | binding to SARS-CoV-2 [4] | binding to rhinovirus [5] | inhibition of virus–host endosomal acidification in infected live cells [6] | inhibition of viral replication, SARS-CoV-2 [7] | inhibition of viral replication, MERS-CoV [8] | inhibition of viral replication, SARS-CoV [9] | inhibition of viral replication, A(H7N9) virus [10] [fold] | inhibition of viral replication, rhinovirus [11] [fold] | binding to H1N1 HA1 protein [12] | binding to MERS-CoV S protein [13] | antiviral activity when cells were pretreated before viral infection [14] | effect on viral attachment [15] | viral replication after 10,000-fold dilution of virus-peptide mixture [16] | inhibition of viral replication when added after SARS-CoV-2 infection [17] | solubility [18] [µg/mL] |
| --- | --- | --- | --- | --- | --- | --- | --- | --- | --- | --- | --- | --- | --- | --- | --- | --- | --- | --- |
| CC[C@H](C)[C@H](NC(=O)[C@H](C)NC(=O)CNC(=O)[C@@H](N)CC(N)=O)C(=O)N[C@@H](CS)C(=O)N[C@@H](Cc1c[nH]c2ccccc12)C(=O)NCC(=O)N1CCC[C@H]1C(=O)N[C@@H](CS)C(=O)N1CCC[C@H]1C(=O)N[C@H](C(=O)N[C@@H](C)C(=O)N[C@@H](Cc1ccccc1)C(=O)N[C@@H](CCCNC(=N)N)C(=O)N[C@@H](CCC(N)=O)C(=O)N[C@H](C(=O)NCC(=O)N[C@@H](CC(N)=O)C(=O)N[C@@H](CS)C(=O)NCC(=O)N[C@@H](Cc1c[nH]cn1)C(=O)N[C@@H](Cc1ccccc1)C(=O)N[C@@H](CCCCN)C(=O)N[C@H](C(=O)N[C@@H](CCCNC(=N)N)C(=O)N[C@@H](CS)C(=O)N[C@@H](CS)C(=O)N[C@@H](CCCCN)C(=O)N[C@H](C(=O)N[C@@H](CCCNC(=N)N)C(=O)O)[C@@H](C)CC)C(C)C)[C@@H](C)CC)[C@@H](C)O [P9, reference compound] (H-NGAICWGPCPTAFRQIGNCGHFKVRCCKIR-OH) | 2.4 (≈ 0.719 µM) | > 25.0 |  |  |  |  |  |  |  |  |  |  |  |  |  |  |  |  |
| CC[C@H](C)[C@H](NC(=O)[C@H](C)NC(=O)CNC(=O)[C@@H](N)CC(N)=O)C(=O)N[C@@H](CS)C(=O)N[C@@H](Cc1c[nH]c2ccccc12)C(=O)NCC(=O)N1CCC[C@H]1C(=O)N[C@@H](CS)C(=O)N1CCC[C@H]1C(=O)N[C@H](C(=O)N[C@@H](C)C(=O)N[C@@H](Cc1ccccc1)C(=O)N[C@@H](CCCNC(=N)N)C(=O)N[C@@H](CCC(N)=O)C(=O)N[C@H](C(=O)NCC(=O)N[C@@H](CC(N)=O)C(=O)N[C@@H](CS)C(=O)NCC(=O)N[C@@H](CCCNC(=N)N)C(=O)N[C@@H](Cc1ccccc1)C(=O)N[C@@H](CCCNC(=N)N)C(=O)N[C@H](C(=O)N[C@@H](CCCNC(=N)N)C(=O)N[C@@H](CS)C(=O)N[C@@H](CS)C(=O)N[C@@H](CCCNC(=N)N)C(=O)N[C@H](C(=O)N[C@@H](CCCNC(=N)N)C(=O)O)[C@@H](C)CC)C(C)C)[C@@H](C)CC)[C@@H](C)O [P9R] (H-NGAICWGPCPTAFRQIGNCGRFRVRCCRIR-OH) | 0.9 (≈ 0.264 µM) | > 25.0 | could more significantly inhibit endosomal acidification in live cells than that of P9 | could efficiently bind | could also bind | could efficiently inhibit | more than 100 fold | more than 100 fold | more than 100 fold | > 20 | > 20 | could also bind | could also bind | did not show antiviral activity | did not affect viral attachment | could significantly inhibit viral replication | could also significantly inhibit viral replication | > 5000 |
| CO/C1=C\C(C)=C\[C@@H](C)[C@@H](O)[C@@H](C)C/C(C)=C/C=C/[C@H](OC)[C@@H]([C@@H](C)[C@@H](O)[C@H](C)[C@@]2(O)C[C@@H](O)[C@H](C)[C@@H](C(C)C)O2)OC1=O [bafilomycin A1, reference compound] |  |  |  |  |  | could efficiently inhibit |  |  |  |  |  |  |  |  |  |  |  |  |
